The target in assay [1] is T1, [Pyruvate dehydrogenase (acetyl-transferring)] kinase isozyme 1, mitochondrial (Homo sapiens, UniProt Q15118). The assay can be described thus: Competitive binding affinity to recombinant N-terminal 6xHis-SUMO-tagged human PDK1 (29 to 436 residues) expressed in Escherichia coli BL-21 assessed as Kd of AZD7545 at 50 uM by isothermal titration calorimetric method (Rvb = 290.6 nM).

Assay [2] addresses T1, [Pyruvate dehydrogenase (acetyl-transferring)] kinase isozyme 1, mitochondrial. The assay can be described thus: Competitive binding affinity to recombinant N-terminal 6xHis-SUMO-tagged human PDK1 (29 to 436 residues) expressed in Escherichia coli BL-21 assessed as Kd of ADP at 50 uM by isothermal titration calorimetric method (Rvb = 4.27 uM). Background: Isothermal titration calorimetry measures the heat released or taken up as one component is titrated into another.

These results are taken from BindingDB's records for doi:10.1021/acs.jmedchem.5b01828 (University of Macau, 2016).

T1 sequence (Q15118 whole entry, the tested form may be a part): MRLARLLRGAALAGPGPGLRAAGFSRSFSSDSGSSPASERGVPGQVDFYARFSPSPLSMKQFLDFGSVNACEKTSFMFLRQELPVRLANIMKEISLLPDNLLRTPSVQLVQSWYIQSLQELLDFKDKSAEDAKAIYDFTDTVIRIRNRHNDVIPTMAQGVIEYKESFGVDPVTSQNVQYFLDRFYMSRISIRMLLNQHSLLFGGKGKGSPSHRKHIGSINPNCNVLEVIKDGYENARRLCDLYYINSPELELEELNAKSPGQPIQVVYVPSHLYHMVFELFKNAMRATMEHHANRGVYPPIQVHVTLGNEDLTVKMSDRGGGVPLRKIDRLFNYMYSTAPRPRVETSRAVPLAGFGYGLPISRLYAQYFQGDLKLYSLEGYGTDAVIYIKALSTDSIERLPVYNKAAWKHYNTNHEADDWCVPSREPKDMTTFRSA

As usually defined, the Kd is the free concentration of one partner at which half of the binding sites on the other are occupied at equilibrium, for simple one-to-one binding. For the compound `O=C(Nc1ccc(Cl)c(C(F)(F)F)c1)C(Cl)Cl`, the Kd turned out to be 0.291 µM in assay [1] and 7.87 µM in assay [2].
